Results taken from ChEMBL document CHEMBL1147477, “(4-Carboxamido)phenylalanine is a surrogate for tyrosine in opioid receptor peptide ligands” (Bioorg Med Chem Lett, 2004).

Key:
Type in all cases: toxicity, cell-based
[1] = Lethal dose against HL-60 human peripheral blood cancer cell line; settings: HL-60 cells, read-out: LD50 (the source's name)
[2] = Lethal dose against HeLa human cervix cancer cell line; settings: HeLa cells, read-out: LD50 (the source's name)
[3] = Lethal dose against NUGC-3 human stomach cancer cell line; settings: NUGC-3 cells, read-out: LD50 (the source's name)
[4] = Lethal dose against human […] HL- 60 cell line; settings: HL-60 cells, read-out: LD50 (the source's name)

Row | Compound | CC50 [1] [µM] | CC50 [2] [µM] | CC50 [3] [µM] | CC50 [4] [µM]
1 | CC(C)=C1Oc2c(ccc3c2C(O)OC(C)C3)C1=O (centres undefined) | 39 | 47 | 49 | –
2 | CC(C)=C1Oc2c(ccc3cc(C)ncc23)C1=O | – | – | – | 39
